Laboratory results taken from US11912693B2, “Compounds for modulating S1P1 activity and methods of using the same” (TREVENA, INC., priority 2017, dated 2024).

Tests used:
[1] = biological target: T1, human sphingosine-1-phosphate receptor 1 (S1P1) (Homo sapiens (Human), UniProt P21453); experiment: Inhibition of cAMP production (HTRF cAMP HiRange), S1P1 CHO-K1 cells; assay type: cell-based; conditions: for Emax: CHO-K1, efficacy (SPAN) normalized to fingolimod, read-out: hS1P1 cAMP SPAN; for hS1P1 cAMP pEC50: inhibition of cAMP production, S1P1 CHO-K1 cells
In short: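 CHO-K1 cells stably co-expressing human S1P1 (C-terminal Prolink tag) and EA-β-arrestin2 were grown in AssayComplete Media 6 at 37° C. and 5% CO2, plated, and incubated overnight. Agonist-driven inhibition of intracellular cAMP was read by TR-FRET with the HTRF cAMP HiRange kit on a PheraStar reader. Potency is pEC50, and efficacy (SPAN) is normalized to fingolimod.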
Target sequence in this assay (P21453 whole entry, looked up): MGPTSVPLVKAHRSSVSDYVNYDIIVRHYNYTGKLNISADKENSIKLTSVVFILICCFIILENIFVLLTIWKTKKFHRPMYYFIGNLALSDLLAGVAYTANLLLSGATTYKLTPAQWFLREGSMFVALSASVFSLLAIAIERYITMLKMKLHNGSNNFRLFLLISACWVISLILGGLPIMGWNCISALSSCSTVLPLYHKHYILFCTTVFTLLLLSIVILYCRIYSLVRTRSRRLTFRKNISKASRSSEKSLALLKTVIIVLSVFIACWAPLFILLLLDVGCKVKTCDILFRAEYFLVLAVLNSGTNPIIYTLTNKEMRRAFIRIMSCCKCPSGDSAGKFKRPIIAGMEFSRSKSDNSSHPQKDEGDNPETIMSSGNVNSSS

[2] = biological target: human sphingosine-1-phosphate receptor 2 (S1P2) (Homo sapiens (Human), UniProt O95136); experiment: Inositol monophosphate production (IP-one TB kit), S1P2 CHO-K1 cells; assay type: cell-based; conditions: for Emax: CHO-K1, efficacy normalized to CYM5520, read-out: hS1P2 IP-one SPAN; for hS1P2 IP-one pEC50: inositol monophosphate accumulation
In short: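 Stable CHO-K1 cells expressing EA-β-arrestin2 and Prolink-tagged human S1P2, plated overnight, then exposed to compounds in IP-one stimulation buffer for 60 min at 37 °C. IP1 read by TR-FRET after 1 h at RT. Efficacy (SPAN) normalized to CYM5520; potency as pEC50.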

[3] = biological target: T1, human sphingosine-1-phosphate receptor 1 (S1P1); experiment: β-Arrestin2 recruitment assay (PathHunter), S1P1 CHO-K1 cells; assay type: cell-based; conditions: for Emax: CHO-K1, read-out: hS1P1 B-arrestin2 SPAN; for hS1P1 B-arrestin2 pEC50: β-arrestin2 recruitment, S1P1 CHO-K1 cells
In short: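 Enzyme-fragment complementation read-out: agonist-driven β-arrestin2 binding to ProLink-tagged human S1P1 in stable CHO-K1 cells restores β-galactosidase, measured 1 h at room temperature after a 60 min 37° C. compound incubation. Potency as pEC50, efficacy relative to fingolimod (SPAN).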
Target sequence in this assay (P21453 whole entry, looked up): as above
Target sequence in this assay (P32121 whole entry partner, looked up): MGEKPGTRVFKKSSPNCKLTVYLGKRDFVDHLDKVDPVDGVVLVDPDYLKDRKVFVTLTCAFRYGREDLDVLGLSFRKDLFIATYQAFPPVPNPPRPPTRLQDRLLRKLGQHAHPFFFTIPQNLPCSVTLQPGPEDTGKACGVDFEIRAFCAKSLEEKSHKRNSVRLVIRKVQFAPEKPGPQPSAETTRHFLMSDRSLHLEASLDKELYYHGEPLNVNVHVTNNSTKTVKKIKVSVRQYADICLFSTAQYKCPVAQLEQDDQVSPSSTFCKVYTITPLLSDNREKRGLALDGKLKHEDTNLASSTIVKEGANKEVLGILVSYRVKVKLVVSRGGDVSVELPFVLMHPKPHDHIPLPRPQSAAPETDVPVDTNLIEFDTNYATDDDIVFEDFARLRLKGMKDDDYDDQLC

[4] = system: Freund's Complete Adjuvant induced inflammation / mechanical allodynia; experiment: Tactile allodynia produced by intraplantar Freund's Complete Adjuvant in rats (Randall-Selitto); assay type: in vivo, rat; conditions: CFA model, 24 hours after CFA
Method: Animals were acclimated to the vivarium for at least 48 hr prior to behavioral testing. Inflammation was induced with the administration of an intraplantar (subcutaneous injection into the plantar surface of the hind paw, i.pl.) injection of 0.10 ml Freund's Complete Adjuvant (FCA). The experiments were conducted 24 hours after CFA administration. Rats are tested for mechanical allodynia in a Randall-Selitto apparatus. The inflamed paw is put on a pedestal and a pointed force of increasing intensity (0 to 250 grams) is applied to the paw. When the animal struggles to withdraw from the force the test is stopped and the force to induce that struggle is recorded. Data is presented as mean grams of force to withdrawal or a percentage of the maximum possible effect.

hERG channel = hERG channel (Homo sapiens (Human), UniProt Q12809); experiment: Automated Qpatch patch-clamp hERG assay
[5] = efficacy (SPAN) normalized to fingolimod

Sequence of hERG channel (Q12809 whole entry): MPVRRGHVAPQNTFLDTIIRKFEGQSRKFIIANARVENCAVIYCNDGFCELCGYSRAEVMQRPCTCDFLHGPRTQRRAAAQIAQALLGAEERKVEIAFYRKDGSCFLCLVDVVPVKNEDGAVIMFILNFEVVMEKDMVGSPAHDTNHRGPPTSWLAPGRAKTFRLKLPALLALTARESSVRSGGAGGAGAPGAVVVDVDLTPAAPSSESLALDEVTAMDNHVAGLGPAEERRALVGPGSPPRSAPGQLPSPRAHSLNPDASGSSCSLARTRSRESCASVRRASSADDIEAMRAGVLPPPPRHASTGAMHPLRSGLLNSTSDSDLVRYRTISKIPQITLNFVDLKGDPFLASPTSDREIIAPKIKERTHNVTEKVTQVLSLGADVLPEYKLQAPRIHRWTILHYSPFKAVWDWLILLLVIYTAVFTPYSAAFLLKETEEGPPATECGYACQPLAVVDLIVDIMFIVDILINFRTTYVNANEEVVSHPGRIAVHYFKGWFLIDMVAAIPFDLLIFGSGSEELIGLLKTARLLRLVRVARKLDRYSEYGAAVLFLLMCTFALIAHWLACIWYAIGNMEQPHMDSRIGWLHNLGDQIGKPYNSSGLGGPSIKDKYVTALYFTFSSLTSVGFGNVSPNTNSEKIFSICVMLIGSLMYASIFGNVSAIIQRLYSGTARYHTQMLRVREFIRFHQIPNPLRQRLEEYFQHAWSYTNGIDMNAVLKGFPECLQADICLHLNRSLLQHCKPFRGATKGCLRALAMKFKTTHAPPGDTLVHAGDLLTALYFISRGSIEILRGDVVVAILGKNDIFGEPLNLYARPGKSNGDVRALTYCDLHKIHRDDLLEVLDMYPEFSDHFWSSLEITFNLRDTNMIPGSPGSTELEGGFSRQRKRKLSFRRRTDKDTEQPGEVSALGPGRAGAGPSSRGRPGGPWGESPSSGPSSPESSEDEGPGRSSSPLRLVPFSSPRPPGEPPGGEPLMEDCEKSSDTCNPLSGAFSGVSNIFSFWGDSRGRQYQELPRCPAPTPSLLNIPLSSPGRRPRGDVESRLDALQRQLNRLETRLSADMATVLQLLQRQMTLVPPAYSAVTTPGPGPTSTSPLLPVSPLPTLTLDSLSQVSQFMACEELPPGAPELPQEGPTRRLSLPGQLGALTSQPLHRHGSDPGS
Sequence of human sphingosine-1-phosphate receptor 2 (S1P2) (O95136 whole entry): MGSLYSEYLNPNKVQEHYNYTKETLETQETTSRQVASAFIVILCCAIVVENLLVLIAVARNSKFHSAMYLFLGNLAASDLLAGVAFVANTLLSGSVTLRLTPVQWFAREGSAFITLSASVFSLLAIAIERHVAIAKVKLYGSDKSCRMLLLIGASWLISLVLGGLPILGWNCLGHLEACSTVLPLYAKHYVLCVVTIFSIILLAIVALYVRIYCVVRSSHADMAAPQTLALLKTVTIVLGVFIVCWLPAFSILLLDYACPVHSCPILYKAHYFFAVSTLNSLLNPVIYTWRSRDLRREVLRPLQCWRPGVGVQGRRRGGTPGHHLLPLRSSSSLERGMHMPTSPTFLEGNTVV

CC(C)n1nnc2cc(-c3nc(-c4ccncc4C(F)(F)F)no3)ccc21 [Compound 455, 1-(propan-2-yl)-5-{3-[3-(trifluoromethyl)pyridin-4-yl]-1,2,4-oxadiazol-5-yl}-1H-1,2,3-benzotriazole]
Emax [1]: > 75%
hS1P1 cAMP pEC50 [1]: >6.5
Emax [2]: < 50%
hS1P2 IP-one pEC50 [2]: <5.0
Emax [3, 5]: > 75%
hS1P1 B-arrestin2 pEC50 [3]: >5

COc1ccccc1-c1nc(-c2ccc3c(c2)nnn3C(C)C)no1 [Compound 287, 3-(1-isopropyl-1H-benzo[d][1,2,3]triazol-5-yl)-5-(2-methoxyphenyl)-1,2,4-oxadiazole]
hS1P1 cAMP pEC50 [1]: >6.5
hS1P2 IP-one pEC50 [2]: <5.0
hS1P1 B-arrestin2 pEC50 [3]: >5

Cc1ccccc1-c1noc(-c2ccc3c(c2)nnn3C(C)C)n1 [Compound 293, 5-[3-(2-methylphenyl)-1,2,4-oxadiazol-5-yl]-1-(propan-2-yl)-1H-1,2,3-benzotriazole]
Emax [1]: > 75%
hS1P1 cAMP pEC50 [1]: >6.5
Active Doses, mg/kg sc (>50% MPE) [4]: ≥0.1 mg/kg
Emax [2]: < 50%
hS1P2 IP-one pEC50 [2]: <5.0
Emax [3, 5]: > 75%
hS1P1 B-arrestin2 pEC50 [3]: >5

CC(C)n1nnc2cc(-c3nc(-c4cccc5c4OCCC5)no3)ccc21 [Compound 304, 3-chroman-8-yl-5-(1-isopropylbenzotriazol-5-yl)-1,2,4-oxadiazole]
IC50 (hERG channel): > 10 µM
hS1P1 cAMP pEC50 [1]: >6.5
hS1P2 IP-one pEC50 [2]: <5.0
hS1P1 B-arrestin2 pEC50 [3]: >5

CCC1(CC)CC(=O)c2cc(-c3nc(-c4cn[nH]c4)no3)ccc2O1 [Compound 469, 6-(3-(1H-pyrazol-4-yl)-1,2,4-oxadiazol-5-yl)-2,2-diethylchroman-4-one]
IC50 (hERG channel): > 10 µM
Emax [1]: > 75%
hS1P1 cAMP pEC50 [1]: >6.5
Active Doses, mg/kg sc (>50% MPE) [4]: ≥0.01 mg/kg
Emax [3, 5]: > 75%
hS1P1 B-arrestin2 pEC50 [3]: >5

COc1ccc(-c2noc(-c3ccc4c(c3)nnn4CC(C)(C)O)n2)c(C)c1 [Compound 26, 1-{5-[3-(4-methoxy-2-methylphenyl)-1,2,4-oxadiazol-5-yl]-1H-1,2,3-benzotriazol-1-yl}-2-methylpropan-2-ol]
IC50 (hERG channel): > 10 µM
hS1P1 cAMP pEC50 [1]: >6.5
Active Doses, mg/kg sc (>50% MPE) [4]: ≥0.1 mg/kg
hS1P2 IP-one pEC50 [2]: <5.0
hS1P1 B-arrestin2 SPAN [3, 5]: <75
hS1P1 B-arrestin2 pEC50 [3]: >5

CCC1(CC)CC(=O)c2cc(-c3nc(-c4ccncc4OC)no3)ccc2O1 [Compound 212, 2,2-diethyl-6-(3-(3-methoxypyridin-4-yl)-1,2,4-oxadiazol-5-yl)chroman-4-one]
Emax [1]: > 75%
hS1P1 cAMP pEC50 [1]: >6.5
Active Doses, mg/kg sc (>50% MPE) [4]: ≥0.1 mg/kg
Emax [2]: < 50%
hS1P2 IP-one pEC50 [2]: <5.0
Emax [3, 5]: < 75%
hS1P1 B-arrestin2 pEC50 [3]: >5

CCC1(CC)CC(=O)c2cc(-c3nc(-c4cccnc4OC)no3)ccc2O1 [Compound 147, 2,2-diethyl-6-(3-(2-methoxypyridin-3-yl)-1,2,4-oxadiazol-5-yl)chroman-4-one]
Emax [1]: > 75%
hS1P1 cAMP pEC50 [1]: >6.5
Emax [2]: < 50%
hS1P2 IP-one pEC50 [2]: <5.0
Emax [3, 5]: > 75%
hS1P1 B-arrestin2 pEC50 [3]: >5

Cc1ccccc1-c1nc(-c2ccc3c(c2)nnn3C(C)C)no1 [Compound 99, 3-(1-isopropyl-1H-benzo[d][1,2,3]triazol-5-yl)-5-(o-tolyl)-1,2,4-oxadiazole]
hS1P1 cAMP pEC50 [1]: >6.5
hS1P2 IP-one pEC50 [2]: <5.0
hS1P1 B-arrestin2 pEC50 [3]: >5

CCC1(CC)CC(=O)c2cc(-c3nc(-c4cccnc4)no3)ccc2O1 [Compound 103, 2,2-diethyl-6-[3-(pyridin-3-yl)-1,2,4-oxadiazol-5-yl]-3,4-dihydro-2H-1-benzopyran-4-one]
Emax [1]: > 75%
hS1P1 cAMP pEC50 [1]: >6.5
Active Doses, mg/kg sc (>50% MPE) [4]: ≥0.03 mg/kg
Emax [2]: < 50%
hS1P2 IP-one pEC50 [2]: <5.0
Emax [3, 5]: > 75%
hS1P1 B-arrestin2 pEC50 [3]: >5
